From US20050287068A1, “Efficacy of active immunotherapy by integrating diagnostic with therapeutic methods” (priority 2004, published 2005) come the findings set out here.

In this experiment the test system is PRAME 425-433. The experiment in a line: IFN-gamma ELISA on splenocytes restimulated with native peptide after intra-lymph-node immunization. Format: in vivo, HHD transgenic mice. The conditions noted are these: different concentrations of plasmid or peptide (peptide together with dsRNA), inguinal lymph nodes, days 0, 3, 14 and 18; spleens 10 days after immunization; FIG. 4 in pg IFN-gamma/ml. The text has this: HHD transgenic mice (n=4/group) were immunized with a PRAME 425-433 expressing plasmid (as described in U.S. Provisional Application No. __/______ (Atty Docket No. MANNK.053PR), entitled METHODS AND COMPOSITIONS TO ELICIT MULTIVALENT IMMUNE RESPONSES AGAINST DOMINANT AND SUBDOMINANT EPITOPES, EXPRESSED ON CANCER CELLS AND TUMOR STROMA, filed on date even with this disclosure, which is hereby incorporated by reference in its entirety) or peptide together with dsRNA (different concentrations of plasmid or peptide, by direct inoculation into the inguinal lymph nodes with 25 μl of plasmid or peptide in PBS/lymph node, on days 0, 3, 14 and 18. Spleens were harvested at 10 days after completion of immunization, splenocytes were incubated over 48 hours with native peptide (10 μg/ml), supernatants harvested and IFN-gamma concentration measured by ELISA.
A general note: ELISA stands for enzyme-linked immunosorbent assay.

Regarding “PRAME 425-433 peptide: PRAME 425-433 peptide given together with dsRNA into inguinal lymph nodes (SLLQHLIGL; UniProt P78395 425-433, looked up, fragment)”, the “magnitude of the immune response (IFN-gamma concentration measured by ELISA)” value is reported as “the larger the dose of peptide, the lower the immune response”.
